In patent publication US20080227866A1, “Hydroxyphenylalkadiones and Their Use for Masking Bitter Taste and/or for Intensifying Sweet Taste” (SYMRISE GMBH & CO. KG, priority 2005, published 2008):

What was measured:
[1] = Bitterness reduction in a bitter principle solution, rated by a group of experts (caffeine); type: in vivo; conditions: 100 ppm substance in aqueous 500 ppm caffeine; for % reduction in the bitter impression: calculated from the average panel values; for Bitter impression (1-10) with: panel mean ± 95% confidence interval
Protocol: In order to quantify the reduction in the bitter impression, the bitterness of an aqueous bitter principle solution and of a sample which contained the same amount of bitter principle and a varying amount of the compound given by way of example was determined by a group of experts ([…]). The evaluation was made as a calculation of the reduction (in %) of the bitter impression from the average values of the estimations of the bitter principle solution and of the solutions containing bitter principle and compound given by way of example. 2,4-Dihydrobenzoic acid (2,4-DHB) was used as a comparison from U.S. Pat. No. 5,643,941. HED means homoeriodictyol sodium salt according to EP 1 258 200 B1.
(§1) Table: Bitterness of a bitter principle solution and of a solution containing bitter principle and a compound given by way of example (2,4-DHB=2,4-dihydroxybenzoic acid, HED=homoeriodictyol sodium salt according to EP 1 258 200 B1). “Testers positive” means the number of testers who were able to detect masking; the 95% confidence intervals are stated as errors; p<x means the significance according to the Student t test method (cf. statistics textbooks), n.s. means not significant.

[2] = Intensification of the sweet impression of a sucrose solution, rated by a group of experts; type: in vivo; conditions: 100 ppm test compound in 5 wt. % sucrose; for % intensification of the sweet impression: calculated from the average panel values; for Sweet impression (1-10) of a 5% strength sucrose solution with Test substance: panel mean ± standard deviation; for number of testers who found the test solution sweeter: second figure in brackets (total/positive)
Protocol: In order to quantify the intensification of the sweet impression, the sweetness of a solution containing 5 wt. % of sucrose and of a sample which contained 5 wt. % of sucrose and 100 ppm of the test compound was determined by a group of experts (classification 0 [not sweet] to 10 [extremely sweet]). The evaluation was made as a calculation of the intensification (in %) of the sweet impression from the average values of the estimations of the sucrose solution and of the solution containing sucrose and compound 2.
Table: Sweetness (a) of a sucrose solution and (b) of a solution containing sucrose and test substance; the standard deviations are stated as errors. In the last column, the total number of testers is stated against the number of testers who found the test solution sweeter.

[3] = Bitterness reduction in a bitter principle solution, rated by a group of experts (quinine hydrochloride); type: in vivo; conditions: 100 ppm substance in aqueous 5 ppm quinine hydrochloride
Protocol: In order to quantify the reduction in the bitter impression, the bitterness of an aqueous bitter principle solution and of a sample which contained the same amount of bitter principle and a varying amount of the compound given by way of example was determined by a group of experts (classification 0 [not bitter] to 10 [extremely bitter]). The evaluation was made as a calculation of the reduction (in %) of the bitter impression from the average values of the estimations of the bitter principle solution and of the solutions containing bitter principle and compound given by way of example. 2,4-Dihydrobenzoic acid (2,4-DHB) was used as a comparison from U.S. Pat. No. 5,643,941. HED means homoeriodictyol sodium salt according to EP 1 258 200 B1.
as §1

[4] = described in DE 2 161,528; cited from earlier work

SMILES | Testers positive (number of testers who were able to detect masking) [1] | % reduction in the bitter impression [1] | Bitter impression (1-10) with [1] | % intensification of the sweet impression [2] | Sweet impression (1-10) of a 5% strength sucrose solution with Test substance [2] | number of testers who found the test solution sweeter [2] | Testers positive (number of testers who were able to detect masking) [3] | % reduction in the bitter impression ([3]; calculated from the average panel values) | Bitter impression (1-10) with ([3]; panel mean ± 95% confidence interval) | antihypertensive action [4]
O=C(O)c1ccc(O)cc1O [2,4-DHB, 2,4-dihydroxybenzoic acid, reference compound] | 9 | 3%, n.s. | 5.0 ± 1.0 |  |  |  |  |  |  | 
COc1cc(/C=C/C(=O)CC(C)=O)ccc1O [compound 1, (5E)-6-(4-hydroxy-3-methoxyphenyl)hex-5-ene-2,4-dione] | 9 | 21%, | 5.1 ± 1.0 |  |  |  |  |  |  | 
COc1cc(CCC(=O)CC(C)=O)ccc1O [compound 4, 6-(4-hydroxy-3-methoxyphenyl)hexane-2,4-dione] | 15 | 34%, | 3.9 ± 0.8 | +13% | 5.3 ± 1.6 | 9 | 10 | 21%, | 1.3 ± 0.8 | 
COc1cc(CCC(=O)C2C(=O)CCC2=O)ccc1O [compound 9, 2-(3-[4-hydroxy-3-methoxyphenyl]propionyl)-cyclopentane-1,3-dione] |  |  |  |  |  |  |  |  |  | weak antihypertensive agent
COc1ccc(/C=C/C(=O)CC(C)=O)cc1O [compound 10, (5E)-6-(3-Hydroxy-4-methoxyphenyl)hex-5-ene-2,4-dione] | 12 | 23% | 4.6 ± 0.9 |  |  |  |  |  |  | 
COc1ccc(CCC(=O)CC(C)=O)cc1O [compound 11, 6-(3-hydroxy-4-methoxyphenyl)hexane-2,4-dione] | 11 | 17%, n.s. | 4.2 ± 0.8 | +28% | 6.6 ± 1.2 | 13 |  |  |  | 
